Experimental data from patent publication US8791132B2, “Compounds and methods for treatment of hypertension” (Medivation Technologies, Inc., priority 2011, dated 2014).
“And” between values parts separate entries of the source, which are not always exact repeats. Identical values can stand only once. Like-named read-outs stand apart in the source and are kept apart here.

What was measured:
[1] = molecular target: T1, rat adrenergic α1B receptor (Rattus norvegicus, UniProt P15823); assay: Radioligand binding, adrenergic α1B ([3H]Prazosin)
T1 construct: rat adrenergic α1B receptor obtained from Wistar Rat liver; from tissue; host or cells: Wistar rat liver
T1 sequence (P15823 1-515): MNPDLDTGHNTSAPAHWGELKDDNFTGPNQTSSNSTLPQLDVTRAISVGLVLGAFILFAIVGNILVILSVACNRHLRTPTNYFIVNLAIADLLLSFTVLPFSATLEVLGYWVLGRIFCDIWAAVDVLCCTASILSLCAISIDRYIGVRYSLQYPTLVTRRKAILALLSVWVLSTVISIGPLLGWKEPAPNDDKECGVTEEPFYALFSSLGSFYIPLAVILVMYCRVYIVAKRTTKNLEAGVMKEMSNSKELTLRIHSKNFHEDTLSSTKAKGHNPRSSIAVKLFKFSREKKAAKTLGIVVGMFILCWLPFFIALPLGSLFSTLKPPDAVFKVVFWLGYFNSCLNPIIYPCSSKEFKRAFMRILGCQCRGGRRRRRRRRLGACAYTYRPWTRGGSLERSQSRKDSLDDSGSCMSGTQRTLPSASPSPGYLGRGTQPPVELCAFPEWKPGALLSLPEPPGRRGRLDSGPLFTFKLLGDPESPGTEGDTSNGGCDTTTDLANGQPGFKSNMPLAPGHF
Summary of the method: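 Filter binding with Wistar rat liver α1B preparation: test compound plus 0.25 nM [3H]prazosin, 1 h at 25° C in modified Tris-HCl buffer pH 7.4.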

[2] = molecular target: T2, human recombinant adrenergic α2A receptor (Homo sapiens, UniProt P08913); assay: Radioligand binding, adrenergic α2A ([3H]MK-912)
T2 construct: expressed in transfected cells; host or cells: insect Sf9 cells
T2 sequence (P08913 1-465): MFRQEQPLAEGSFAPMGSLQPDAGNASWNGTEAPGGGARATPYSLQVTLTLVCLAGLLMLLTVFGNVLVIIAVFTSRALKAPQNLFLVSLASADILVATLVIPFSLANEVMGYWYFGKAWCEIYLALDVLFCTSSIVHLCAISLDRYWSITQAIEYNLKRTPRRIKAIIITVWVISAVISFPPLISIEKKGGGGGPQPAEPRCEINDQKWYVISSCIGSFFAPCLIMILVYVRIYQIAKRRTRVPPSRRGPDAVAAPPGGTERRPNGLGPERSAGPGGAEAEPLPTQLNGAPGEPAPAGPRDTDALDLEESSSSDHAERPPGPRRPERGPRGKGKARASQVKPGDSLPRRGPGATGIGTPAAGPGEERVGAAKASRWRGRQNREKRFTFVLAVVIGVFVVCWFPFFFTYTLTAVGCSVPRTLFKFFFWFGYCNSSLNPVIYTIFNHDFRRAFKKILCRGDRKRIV
Summary of the method: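 Sf9-expressed receptor was incubated with compound for 60 min at 25 °C in modified Tris-HCl buffer, pH 7.4. Nonspecific binding was taken as that remaining with 10 μM WB-4101.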

[3] = molecular target: T3, human recombinant adrenergic α2B receptor (Homo sapiens, UniProt P18089); assay: Radioligand binding, adrenergic α2B ([3H]Rauwolscine); details: for Ki: read-out: Ki α2B; for inhibition at 0.1 µM: read-out: Percentage inhibition of ligand binding, Adrenergic α2B (0.1 μM), compound at 0.1 μM
T3 construct: expressed in transfected cells; host or cells: CHO-K1
T3 sequence (P18089 1-450): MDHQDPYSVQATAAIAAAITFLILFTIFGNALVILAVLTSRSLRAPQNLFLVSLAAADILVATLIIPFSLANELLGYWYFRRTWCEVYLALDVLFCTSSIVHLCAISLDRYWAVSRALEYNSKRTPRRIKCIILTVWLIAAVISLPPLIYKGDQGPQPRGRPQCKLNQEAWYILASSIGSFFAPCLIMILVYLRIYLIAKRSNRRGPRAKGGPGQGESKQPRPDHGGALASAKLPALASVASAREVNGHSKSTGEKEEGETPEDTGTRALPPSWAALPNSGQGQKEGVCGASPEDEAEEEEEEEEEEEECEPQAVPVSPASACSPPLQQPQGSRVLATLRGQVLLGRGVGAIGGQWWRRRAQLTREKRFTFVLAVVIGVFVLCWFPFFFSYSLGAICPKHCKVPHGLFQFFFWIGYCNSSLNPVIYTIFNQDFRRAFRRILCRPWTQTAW
Summary of the method: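 Assay used CHO-K1-expressed human α2B receptor in Tris-HCl pH 7.4 buffer with MgCl2, EDTA and BSA; 60 min incubation at 25 °C.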

[4] = compound at 0.1 μM, [3H]Prazosin, repeat datapoints each shown, 0.1 µM
[5] = compound at 0.1 μM, [3H]MK-912, repeat datapoints each shown, 0.1 µM
[6] = compound at 0.03 μM, [3H]Rauwolscine, repeat datapoints each shown, 0.03 µM
[7] = read-out: Percentage inhibition of ligand binding, Adrenergic α1B (0.1 μM), compound at 0.1 μM, [3H]Prazosin, repeat datapoints each shown
[8] = read-out: Percentage inhibition of ligand binding, Adrenergic α2A (0.1 μM), compound at 0.1 μM, [3H]MK-912, repeat datapoints each shown
[9] = read-out: Percentage inhibition of ligand binding, Adrenergic α2B (0.03 μM), compound at 0.03 μM, [3H]Rauwolscine, repeat datapoints each shown
[10] = compound at 0.1 μM, [3H]Prazosin, repeat assays, each datapoint shown, read-out: Percentage inhibition of ligand binding, Adrenergic α1B
[11] = compound at 0.1 μM, [3H]MK-912, repeat assays, each datapoint shown, read-out: Percentage inhibition of ligand binding, Adrenergic α2A
[12] = compound at 0.03 μM, [3H]Rauwolscine, repeat assays, each datapoint shown, read-out: Percentage inhibition of ligand binding, Adrenergic α2B
[13] = [3H]Rauwolscine, repeat datapoints each shown

Percentage inhibition of ligand binding, Adrenergic α1B (0.1 μM) [1, 4] [%] | Percentage inhibition of ligand binding, Adrenergic α2A (0.1 μM) [2, 5] [%] | Percentage inhibition of ligand binding, Adrenergic α2B (0.03 μM) [3, 6] | inhibition at 0.1 µM [1, 7] [%] | inhibition at 0.03 µM [3, 9] [%] | Compound | also measured
100 | 98 | 98% |  |  | Cc1ccc2c(c1)c1c(n2CC(O)c2ccc(F)cc2)CCN2CCCC12 (single isomer, unassigned) [II-120b, 1-(4-fluoro-phenyl)-2-(9-methyl-1,2,3,4,5,10c-hexahydro-3a,6-diaza-cyclopenta[c]fluoren-6-yl)-ethanol] | 
 |  |  | -3 | 11 | CN1CCc2c(c3cc(CO)ccc3n2CC(C)(F)c2cccnc2)C1 (stereo not shown) [II-213, [5-(2-fluoro-2-pyridin-3-yl-propyl)-2-methyl-2,3,4,5-tetrahydro-1H-pyrido[4,3-b]indol-8-yl]-methanol] | inhibition at 0.1 µM [2, 8]: 12%
47 | 31 | 24% |  |  | CCN1CCc2c(c3cc(C)ccc3n2CC(O)c2ccc(C)cc2)C1 (single isomer, unassigned) [203b] | 
 | 10 |  | 5 | 36 | Cc1ccc2c(c1)c1c(n2CC(C)(O)c2cccnc2)C(c2ccccc2)N(C)CC1 (stereo not drawn) [II-112a, 1-(2,6-dimethyl-1-phenyl-1,2,3,4-tetrahydro-β-carbolin-9-yl)-2-pyridin-3-yl-propan-2-ol] | 
−2 | 23 |  |  | 26 | Cc1ccc2c(c1Cl)c1c(n2CC(C)(O)c2cccnc2)CCN(C)C1 (single isomer, unassigned) [II-124a, 1-(9-chloro-2,8-dimethyl-3,4-dihydro-1H-pyrido[4,3-b]indol-5(2H)-yl)-2-(pyridin-3-yl)propan-2-ol] | 
 |  | 86% | 28 | 79 | Cc1ccc2c(c1)c1c(n2CC(OC(=O)N(C)C)c2ccncc2)CCN(C)C1 (single isomer, unassigned) [141b, N,N-dimethyl-carbamic acid 2-(2,8-dimethyl-1,2,3,4-tetrahydro-pyrido[4,3-b]indol-5-yl)-1-pyridin-4-yl-ethyl ester] | inhibition at 0.1 µM [2, 8]: 19%; Ki [3]: 3.44 nM
 |  |  |  |  | CN1CCc2c(c3cc(C(F)(F)F)ccc3n2CC(O)c2ccncc2)C1 (stereo not shown) [compound 6, 2-(2-methyl-8-(trifluoromethyl)-3,4-dihydro-1H-pyrido[4,3-b]indol-5(2H)-yl)-1-(pyridin-4-yl)ethanol] | inhibition at 0.1 µM [1, 10]: 8%; inhibition at 0.1 µM [2, 11]: 2%; inhibition at 0.03 µM [3, 12]: 62%
 | 22 | 62% and 71% | 13 |  | CN1CCc2c(c3cc(C(F)(F)F)ccc3n2CC(C)(O)c2cccnc2)C1 (single isomer, unassigned) [174a] | Ki [3]: 7.91 nM; inhibition at 0.1 µM [3, 13]: 86%
 |  |  |  |  | Cc1ccc2c(c1)c1c(n2CC(O)c2ccncc2)CCN(CCO)C1 (stereo not shown) [II-64, 2-[2-(2-hydroxy-ethyl)-8-methyl-1,2,3,4-tetrahydro-pyrido[4,3-b]indol-5-yl]-1-pyridin-4-yl-ethanol] | inhibition at 0.1 µM ([1]; 0.1 μM compound, read-out: Percentage inhibition of ligand binding, Adrenergic α1B): 23%; inhibition at 0.1 µM ([2]; 0.1 μM compound, read-out: Percentage inhibition of ligand binding, Adrenergic α2A): -3%; inhibition at 0.03 µM ([3]; 0.03 μM compound, read-out: Percentage inhibition of ligand binding, Adrenergic α2B): 54%
 |  |  |  |  | Cc1ccc2c(c1)c1c(n2CC(O)c2ccncc2)C(C)N2CCC1C2 (single isomer, unassigned) [38a] | Percentage inhibition of ligand binding, Adrenergic α1B ([1]; compound at 0.1 μM, [3H]Prazosin, repeat assays, each datapoint shown, 0.1 µM): 11%; Percentage inhibition of ligand binding, Adrenergic α2A ([2]; compound at 0.1 μM, [3H]MK-912, repeat assays, each datapoint shown, 0.1 µM): 14%; Percentage inhibition of ligand binding, Adrenergic α2B ([3]; compound at 0.03 μM, [3H]Rauwolscine, repeat assays, each datapoint shown, 0.03 µM): 35%
0 | 18 | 7% |  |  | Cc1ccc2c(c1)c1c(n2CC(C)(OCC(=O)O)c2cccnc2)CCN(C)C1 (single isomer, unassigned) [V-14a, 2-((1-(2,8-dimethyl-3,4-dihydro-1H-pyrido[4,3-b]indol-5(2H)-yl)-2-(pyridin-3-yl)propan-2-yl)oxy)acetic acid] | 
 |  |  | 62 |  | CN1CCc2c(c3cc(Cl)ccc3n2CCc2ccc(F)cc2)C1 [compound 217] | inhibition at 0.1 µM [2, 8]: 74%; inhibition at 0.1 µM [3, 13]: 102%
 |  |  |  |  | COc1ccc(C(C)(O)Cn2c3c(c4cc(C)ccc42)CN(C)CC3)cn1 (stereo not shown) [compound 64, 1-(2,8-dimethyl-1,2,3,4-tetrahydro-pyrido[4,3-b]indol-5-yl)-2-(6-methoxy-pyridin-3-yl)-propan-2-ol] | inhibition at 0.1 µM [1, 10]: 25%; inhibition at 0.1 µM [2, 11]: 12%; inhibition at 0.03 µM [3, 12]: 62%
41 | 12 | 67% |  |  | Cc1ccc2c(c1)c1c(n2CC(C)(O)c2cnccn2)CCN2CCCC12 (single isomer, unassigned) [176b] | 
3 | 15 | 33% |  |  | CC(O)(Cn1c2c(c3cc(Cl)ccc31)C1CCCN1CC2)c1cccnc1 (single isomer, unassigned) [II-130b, 1-(10-chloro-2,3,5,6-tetrahydro-1H-indolizino[7,8-b]indol-7(11cH)-yl)-2-(pyridin-3-yl)propan-2-ol] | 
 |  |  | 4 | 43 | Cc1cnc2c(c1)c1c(n2CC(O)c2ccc(C#N)cc2)CCNC1 (stereo not shown) [II-116] | inhibition at 0.1 µM [2, 8]: 3%
 |  |  | 91 | 104 | C/C(=C\n1c2c(c3cc(C)ccc31)C1CCCN1CC2)c1ccc(C)nc1 (single isomer, unassigned) [193b, 10-methyl-7-(2-(6-methylpyridin-3-yl)prop-1-enyl)-2,3,5,6,7,11c-hexahydro-1H-indolizino[7,8-b]indole] | inhibition at 0.1 µM [2, 8]: 83%
